In patent publication US20260347364A1, “PYRAZOLO[4,3-F]QUINAZOLINE DERIVATIVES AS MODULATORS OF G12D MUTANT KRAS USEFUL FOR THE TREATMENT OF CANCER” (JAZZ PHARMACEUTICALS IRELAND LTD., priority 2023, published 2026):

What was measured:
KRAS WT = molecular target: T1, KRAS WT (Homo sapiens, UniProt P01116); assay: HTRF nucleotide exchange assay, KRAS WT; assay type: biochemical; conditions: HTRF nucleotide exchange assay (NEA), class symbols
T1 construct: aa1-188 KRAS WT

KRAS G12D = molecular target: T2, KRAS G12D (Homo sapiens, UniProt P01116, G12D); assay: HTRF nucleotide exchange assay, KRAS G12D; assay type: biochemical; conditions: HTRF nucleotide exchange assay (NEA), class symbols
T2 construct: aa1-188 KRAS WT, HRAS WT, NRAS WT, or KRAS containing the G12D
T2 sequence (P01116 1-188 isoform P01116-2 G12D): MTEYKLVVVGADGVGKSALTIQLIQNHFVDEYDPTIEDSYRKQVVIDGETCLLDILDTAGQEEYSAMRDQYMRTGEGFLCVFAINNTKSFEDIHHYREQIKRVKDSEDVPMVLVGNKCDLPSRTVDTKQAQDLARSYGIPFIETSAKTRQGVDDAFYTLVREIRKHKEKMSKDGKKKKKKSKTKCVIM

T1 sequence (P01116 1-188 isoform P01116-2): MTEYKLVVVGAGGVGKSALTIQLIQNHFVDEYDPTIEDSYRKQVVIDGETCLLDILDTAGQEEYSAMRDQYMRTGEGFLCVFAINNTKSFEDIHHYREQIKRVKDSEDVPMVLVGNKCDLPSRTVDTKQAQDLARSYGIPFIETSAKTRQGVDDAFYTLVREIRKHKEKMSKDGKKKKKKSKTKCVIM

Compound	IC50 (KRAS WT) [nM]	IC50 (KRAS G12D) [nM]
CCc1c(F)ccc2cc(O)cc(-c3c(F)c4nc(OCC5(C#N)CCOC5)nc(N5CC6CCC(C5)N6)c4c4cn(C)nc34)c12 (stereo not shown) [Example 168, 3-[[9-(3,8-diazabicyclo[3.2.1]octan-3-yl)-4-(8-ethyl-7-fluoro-3-hydroxy-1-naphthyl)-5-fluoro-2-methyl-pyrazolo[4,3-f]quinazolin-7-yl]oxymethyl]tetrahydrofuran-3-carbonitrile]	100 to 10000	≤ 10
CCc1c(F)ccc2cc(O)cc(-c3c(F)c4nc(OCC56COC(COC)(C5)C6)nc(N5CC6CCC(C5)N6)c4c4cn(C)nc34)c12 [Example 169, 4-[9-(3,8-diazabicyclo[3.2.1]octan-3-yl)-5-fluoro-7-[[1-(methoxymethyl)-2-oxabicyclo[2.1.1]hexan-4-yl]methoxy]-2-methyl-pyrazolo[4,3-f]quinazolin-4-yl]-5-ethyl-6-fluoro-naphthalen-2-ol]	100 to 10000	≤ 10
CCc1c(F)ccc2cc(O)cc(-c3c(F)c4nc(OCC5(CN6CCC(C#N)C6)CC5)nc(N5CCOCC(C)(O)C5)c4c4cn(C)nc34)c12 (stereo not shown) [Example 170, 1-[[1-[[4-(8-ethyl-7-fluoro-3-hydroxy-1-naphthyl)-5-fluoro-9-(6-hydroxy-6-methyl-1,4-oxazepan-4-yl)-2-methyl-pyrazolo[4,3-f]quinazolin-7-yl]oxymethyl]cyclopropyl]methyl]pyrrolidine-3-carbonitrile]	≤ 10	≤ 10
CCc1c(F)ccc2cc(O)cc(-c3c(F)c4nc(OCC5(CN6CC(C#N)C6)CC5)nc(N5CCOCC(C)(O)C5)c4c4cn(C)nc34)c12 (stereo not shown) [Example 171, 1-[[1-[[4-(8-ethyl-7-fluoro-3-hydroxy-1-naphthyl)-5-fluoro-9-(6-hydroxy-6-methyl-1,4-oxazepan-4-yl)-2-methyl-pyrazolo[4,3-f]quinazolin-7-yl]oxymethyl]cyclopropyl]methyl]azetidine-3-carbonitrile]	≤ 10	≤ 10
CCc1c(F)ccc2cc(O)cc(-c3c(F)c4nc(OCC5(CN6CCCCC6)CC5)nc(N5CCOCC(C)(O)C5)c4c4cn(C)nc34)c12 (stereo not shown) [Example 172, 4-[4-(8-ethyl-7-fluoro-3-hydroxy-1-naphthyl)-5-fluoro-2-methyl-7-[[1-(1-piperidylmethyl)cyclopropyl]methoxy]pyrazolo[4,3-f]quinazolin-9-yl]-6-methyl-1,4-oxazepan-6-ol]	≤ 10	≤ 10
Cc1cc2[nH]ncc2c(-c2c(C)c3nc(OCC45CCCN4CC(F)C5)nc(N4CCOCC(C)(O)C4)c3c3cn(C)nc23)c1Cl [Example 173, 4-[4-(5-chloro-6-methyl-1H-indazol-4-yl)-2,5-dimethyl-7-[[(2R,8S)-2-fluoro-1,2,3,5,6,7-hexahydropyrrolizin-8-yl]methoxy]pyrazolo[4,3-f]quinazolin-9-yl]-6-methyl-1,4-oxazepan-6-ol]	100 to 10000	10 to 100
CCc1c(F)ccc2cc(O)cc(-c3c(F)c4nc(OC[C@@]56CCCN5C[C@H](F)C6)nc(N5C[C@H]6COC[C@H]6C5)c4c4cn(C)nc34)c12 [Example 174, 5-ethyl-6-fluoro-4-[5-fluoro-2-methyl-9-[(3aR,6aS)-1,3,3a,4,6,6a-hexahydrofuro[3,4-c]pyrrol-5-yl]-7-[[(2R,8S)-2-fluoro-1,2,3,5,6,7-hexahydropyrrolizin-8-yl]methoxy]pyrazolo[4,3-f]quinazolin-4-yl]naphthalen-2-ol]	≤ 10	≤ 10
CCc1c(F)ccc2cc(O)cc(-c3c(F)c4nc(OC[C@@]56CCCN5C[C@H](F)C6)nc(N5C[C@H]6COC[C@@H]6C5)c4c4cn(C)nc34)c12 [Example 175, 5-ethyl-6-fluoro-4-[5-fluoro-2-methyl-9-[(3aS,6aS)-1,3,3a,4,6,6a-hexahydrofuro[3,4-c]pyrrol-5-yl]-7-[[(2R,8S)-2-fluoro-1,2,3,5,6,7-hexahydropyrrolizin-8-yl]methoxy]pyrazolo[4,3-f]quinazolin-4-yl]naphthalen-2-ol]	10 to 100	100 to 10000

Second part, the molecule after the results:

IC50 (KRAS WT) [nM]	IC50 (KRAS G12D) [nM]	Compound
≤ 10	≤ 10	CCc1c(F)ccc2cc(O)cc(-c3c(F)c4nc(OC[C@@]56CCCN5C[C@H](F)C6)nc(N5CCCC(C#N)C5)c4c4cn(C)nc34)c12 (stereo partly drawn) [Example 176, 1-[4-(8-ethyl-7-fluoro-3-hydroxy-1-naphthyl)-5-fluoro-2-methyl-7-[[(2R,8S)-2-fluoro-1,2,3,5,6,7-hexahydropyrrolizin-8-yl]methoxy]pyrazolo[4,3-f]quinazolin-9-yl]piperidine-3-carbonitrile]
≤ 10	≤ 10	CCc1c(F)ccc2cc(O)cc(-c3c(F)c4nc(OC[C@@]56CCCN5C[C@H](F)C6)nc(N5CCC(O)CC5)c4c4cn(C)nc34)c12 [Example 177, 1-[4-(8-ethyl-7-fluoro-3-hydroxy-1-naphthyl)-5-fluoro-2-methyl-7-[[(2R,8S)-2-fluoro-1,2,3,5,6,7-hexahydropyrrolizin-8-yl]methoxy]pyrazolo[4,3-f]quinazolin-9-yl]piperidin-4-ol]
≤ 10	≤ 10	CCc1c(F)ccc2cc(O)cc(-c3c(F)c4nc(OC[C@@]56CCCN5C[C@H](F)C6)nc(N5CCC[C@@H](O)C5)c4c4cn(C)nc34)c12 [Example 178, (3R)-1-[4-(8-ethyl-7-fluoro-3-hydroxy-1-naphthyl)-5-fluoro-2-methyl-7-[[(2R,8S)-2-fluoro-1,2,3,5,6,7-hexahydropyrrolizin-8-yl]methoxy]pyrazolo[4,3-f]quinazolin-9-yl]piperidin-3-ol]
≤ 10	≤ 10	CCc1c(F)ccc2cc(O)cc(-c3c(F)c4nc(OC[C@@]56CCCN5C[C@H](F)C6)nc(N5CC6CCC5CN6)c4c4cn(C)nc34)c12 (stereo partly drawn) [Example 179, 4-[9-(2,5-diazabicyclo[2.2.2]octan-2-yl)-5-fluoro-2-methyl-7-[[(2R,8S)-2-fluoro-1,2,3,5,6,7-hexahydropyrrolizin-8-yl]methoxy]pyrazolo[4,3-f]quinazolin-4-yl]-5-ethyl-6-fluoro-naphthalen-2-ol]
≤ 10	≤ 10	CCc1c(F)ccc2cc(O)cc(-c3c(C)c4nc(OC[C@@]56CCCN5C[C@H](F)C6)nc(N5CCCn6nc(C(=O)N(C)C)c(F)c6C5)c4c4cn(C)nc34)c12 [Example 180, 5-[4-(8-ethyl-7-fluoro-3-hydroxy-1-naphthyl)-2,5-dimethyl-7-[[(2R,8S)-2-fluoro-1,2,3,5,6,7-hexahydropyrrolizin-8-yl]methoxy]pyrazolo[4,3-f]quinazolin-9-yl]-3-fluoro-N,N-dimethyl-4,6,7,8-tetrahydropyrazolo[1,5-a][1,4]diazepine-2-carboxamide]
≤ 10	≤ 10	CCNC(=O)c1cc2n(n1)CCCN(c1nc(OC[C@@]34CCCN3C[C@H](F)C4)nc3c(C)c(-c4cc(O)cc5ccc(F)c(CC)c45)c4nn(C)cc4c13)C2 [Example 181, N-ethyl-5-[4-(8-ethyl-7-fluoro-3-hydroxy-1-naphthyl)-7-[[(2R,8S)-2-fluoro-1,2,3,5,6,7-hexahydropyrrolizin-8-yl]methoxy]-2,5-dimethyl-pyrazolo[4,3-f]quinazolin-9-yl]-4,6,7,8-tetrahydropyrazolo[1,5-a][1,4]diazepine-2-carboxamide]
